Values of other authors, collected in US12503489B2, “Method for producing antibody-drug conjugate” (DAIICHI SANKYO COMPANY, LIMITED, priority 2017, dated 2025).

Molecular target: T1, topoisomerase I (Homo sapiens, UniProt P11387)
T1 sequence (P11387 1-765): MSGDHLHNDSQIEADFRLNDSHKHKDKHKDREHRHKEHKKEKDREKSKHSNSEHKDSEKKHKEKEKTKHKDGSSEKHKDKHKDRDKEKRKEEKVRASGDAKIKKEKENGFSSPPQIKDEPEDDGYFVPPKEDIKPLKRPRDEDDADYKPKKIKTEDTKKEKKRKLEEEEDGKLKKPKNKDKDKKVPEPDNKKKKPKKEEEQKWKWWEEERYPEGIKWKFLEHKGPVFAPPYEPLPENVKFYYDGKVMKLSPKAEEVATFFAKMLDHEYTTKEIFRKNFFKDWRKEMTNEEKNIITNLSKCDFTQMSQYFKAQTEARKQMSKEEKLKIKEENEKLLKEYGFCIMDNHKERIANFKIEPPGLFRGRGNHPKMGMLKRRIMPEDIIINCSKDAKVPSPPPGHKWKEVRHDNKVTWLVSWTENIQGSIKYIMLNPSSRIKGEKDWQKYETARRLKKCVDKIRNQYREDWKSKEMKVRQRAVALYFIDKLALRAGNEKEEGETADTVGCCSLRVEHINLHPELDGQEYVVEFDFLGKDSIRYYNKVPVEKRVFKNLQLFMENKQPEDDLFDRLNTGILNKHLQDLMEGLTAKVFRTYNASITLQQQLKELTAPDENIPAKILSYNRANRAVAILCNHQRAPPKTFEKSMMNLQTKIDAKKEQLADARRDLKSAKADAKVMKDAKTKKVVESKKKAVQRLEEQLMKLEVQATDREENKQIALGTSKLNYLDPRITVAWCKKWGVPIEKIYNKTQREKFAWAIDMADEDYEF
Conditions: Ogitani Y. et al., Clinical Cancer Research 2016; 22 (20): 5097-5108

CC[C@@]1(O)C(=O)OCc2c1cc1n(c2=O)Cc2c-1nc1cc(F)c(C)c3c1c2[C@@H](NC(=O)CO)CC3 [formula (22)]
topoisomerase I inhibitory effect: confirmed to have a topoisomerase I inhibitory effect
